In patent US6514997B2, “Antipicornaviral compounds and compositions, their pharmaceutical uses, and materials for their synthesis” (Agouron Pharmaceuticals, Inc., priority 1999, dated 2003):
Where two headings read alike, the source gives them in different places.

What was measured:
[1] = tested on: Coxsackievirus type B3 (CVB3); assay: Anticoxsackieviral cell culture assay (XTT, EC50), CVB3; type: cell-based, coxsackievirus B3 in H1-HeLa cells
Method: (§1) Anticoxsackieviral Cell Culture Assay:
(§2) Coxsackievirus types A-21 (CAV-21) and B3 (CVB3) were purchased from American Type Culture Collection (ATCC, Rockville, Md.). Virus stocks were propagated and antiviral assays were performed in H1-HeLa cells (ATCC). Cells were grown in minimal essential medium with 10% fetal bovine serum (Life Technologies, Gaithersburg, Md.). The ability of the compounds of this invention to protect cells against either CAV-21 or CVB3 infection was measured by the XTT dye reduction method. This method is described in Weislow et al., J. Natl. Cancer Inst. (1989), vol. 81, 577-586. H1-HeLa cells were infected with CAV-21 or CVB3 at a multiplicity of infection (m.o.i.) of 0.025 or 0.075, respectively, or mock-infected with medium only. H1-HeLa cells were plated at 4×10^4 cells per well in a 96-well plate and incubated with appropriate concentrations of the test compound. One day (CVB3) or two days (CAV-21) later, XTT/PMS was added to test plates and the amount of formazan produced was quantified spectrophotometrically at 450/650 nm. […] The therapeutic index (TI) was calculated by dividing the CC50 by the EC50.

[2] = Cytotoxicity (CC50) in uninfected MRC-5 cells, XTT dye reduction; type: cell-based, human; conditions: human
Method: (§3) Echovirus type 11 (ECHO 11) was purchased from ATCC (Rockville, Md.). Virus stocks were propagated and antiviral assays were performed in MRC-5 cells (ATCC). Cells were grown in minimal essential medium with 10% fetal bovine serum (Life Technologies, Gaithersburg, Md.). The ability of the compounds of this invention to protect cells against ECHO 11 infection was measured by the XTT dye reduction method (Weislow et al., J. Natl. Cancer Inst. (1989), vol. 81, 577-586). MRC-5 cells were infected with ECHO 11 at an m.o.i. of 0.003 or 0.004, respectively, or mock-infected with medium only. Infected or uninfected cells were added at 1×10^4 cells per well and incubated with appropriate concentrations of compound. Four days later, XTT/PMS was added to test plates, and the amount of formazan produced was quantified spectrophotometrically at 450/650 nm. […] The therapeutic index (TI) was calculated by dividing the CC50 by the EC50. Activity of the compounds against enterovirus type 70 (EV 70) may be measured by the same assay as described above in this section. Enterovirus type 70 (EV 70) may be obtained from the American Type Culture Collection ATCC (Rockville, Md.).

[3] = Cytotoxicity (CC50) in mock-infected H1-HeLa cells, XTT dye reduction; type: cell-based, human; conditions: human
Procedure, shortened: (§4)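 H1-HeLa cells mock-infected, read by XTT/PMS formazan at 450/650 nm.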

[4] = tested on: Echovirus type 11 (ECHO 11); assay: Anti-echoviral cell culture assay (XTT, EC50), ECHO 11; type: cell-based, echovirus 11 in MRC-5 cells; conditions: Enterovirus B
Method: (§5) Anti-Echoviral and Anti-Enteroviral Cell Culture Assays
as §3

[5] = tested on: Coxsackievirus type A-21 (CAV-21); assay: Anticoxsackieviral cell culture assay (XTT, EC50), CAV-21; type: cell-based, coxsackievirus A-21 in H1-HeLa cells
Method: as §1, §2

HRV-14 = assay: Antirhinoviral H1-HeLa cell culture assay (XTT cell protection, EC50), HRV-14; type: cell-based, human rhinovirus (HRV) serotype-14 in H1-HeLa cells
Procedure, shortened: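 H1-HeLa cells were infected with HRV-14 at m.o.i. 0.13, or mock-infected, and incubated with compound for two days. Cell protection was read by XTT/PMS formazan absorbance at 450/650 nm to give EC50. CC50 came from mock-infected cells, and TI = CC50/EC50.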

[6] = molecular target: T1, Recombinant rhinovirus 3C protease, serotype 14 (Human rhinovirus 14, UniProt P03303); assay: Inhibition of rhinovirus 3C protease (FRET assay, kobs/[I]), serotype 14; type: biochemical; conditions: pH 7.6; HRV-14; read-out: kobs/[I] (3C protease inhibition activity)
T1 construct: Recombinant rhinovirus 3C proteases; made in house
Procedure, shortened: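 Enzyme-start FRET assay with ~1 μM DABCYL/EDANS peptide substrate and 50-100 nM recombinant protease in 50 mM tris pH 7.6, 1 mM EDTA, 2% DMSO. Cleavage followed as fluorescence increase; kobs/[I] derived from progress curves.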

MRC-5 cells = assay: Cytotoxicity (CC50) in uninfected MRC-5 cells, XTT dye reduction; type: cell-based, human
Method: as §3

[7] = tested on: enterovirus type 70 (EV 70); assay: Anti-enteroviral cell culture assay (XTT, EC50), EV 70; type: cell-based, enterovirus 70 in MRC-5 cells; conditions: Enterovirus D
Method: as §5, §3

H1-HeLa cells = assay: Cytotoxicity (CC50) in mock-infected H1-HeLa cells, XTT dye reduction; type: cell-based, human
Procedure, shortened: as §4

[8] = tested on: strains of human rhinovirus (HRV); assay: Antirhinoviral H1-HeLa cell culture assay (XTT cell protection, EC50), other HRV strains; type: cell-based, human rhinovirus in H1-HeLa cells; conditions: read-out: EC50
Procedure, shortened: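 H1-HeLa cells infected, or mock-infected, were incubated with compounds for two days. Cell protection measured by XTT/PMS formazan absorbance at 450/650 nm; TI taken as CC50 divided by EC50.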

[9] = uninfected (mock-infected) MRC-5 cells, ECHO-11 (EV-11) row
[10] = H1-HeLa cells, mock-infected, HRV-14
[11] = mock-infected (uninfected) H1-HeLa cells, CAV-21
[12] = mock-infected (uninfected) H1-HeLa cells, CVB3
[13] = Rhinovirus B, HRV14, H1-HeLa, HRV-14, read-out: EC50
[14] = MRC-5 cells, uninfected (mock-infected), line of ECHO-11
[15] = H1-HeLa cells, mock-infected, line of HRV-14
[16] = H1-HeLa cells, uninfected (mock-infected), line of CAV-21
[17] = H1-HeLa cells, uninfected (mock-infected), line of CVB3
[18] = Coxsackievirus, CAV-21, read-out: EC50
[19] = CVB3, H1-HeLa cells, read-out: EC50
[20] = Human rhinovirus sp., HRV10, H1-HeLa, HRV-10

T1 sequence (P03303 1538-1719): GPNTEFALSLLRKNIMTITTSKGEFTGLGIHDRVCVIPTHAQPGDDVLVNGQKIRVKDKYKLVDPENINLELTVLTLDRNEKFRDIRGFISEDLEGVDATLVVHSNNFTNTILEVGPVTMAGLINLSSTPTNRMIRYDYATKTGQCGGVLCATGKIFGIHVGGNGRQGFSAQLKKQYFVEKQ

| EC50 (HRV-14; [13]) [nM] | kinact/KI [6] [M⁻¹ s⁻¹] | EC50 ([1]; CVB3, read-out: EC50) [nM] | EC50 ([4]; ECHO-11, read-out: EC50) [nM] | EC50 [5, 18] [nM] | EC50 ([7]; ENT-70) [nM] | Compound | CC50 at 4 days [2, 14] [nM] | CC50 (MRC-5 cells; line of ENT-70) [nM] | CC50 at 2 days [3, 15] [nM] | CC50 at 2 days [3, 16] [nM] | CC50 at 1 day [3, 17] [nM] | further results |
| --- | --- | --- | --- | --- | --- | --- | --- | --- | --- | --- | --- | --- |
| 16 | 329000 | 577 | 54 | 1390 | 18 | CCOC(=O)/C=C\[C@H](CCC(N)=O)NC(=O)[C@H](Cc1ccccc1)n1cccc(NC(=O)c2cc(C)on2)c1=O [Compound 5, trans-(2′S,4S)-6-Carbamoyl-4-(2′-{3″-[(5′″-methylisoxazole-3′″-carbonyl)amino]-2″-oxo-2″H-pyridin-1″-yl}-3′-phenylpropionylamino)hex-2-enoic Acid Ethyl Ester] | > 10000 | > 10000 | > 10000 | > 10000 | > 10000 | – |
| 34 | 37400 | 2500 | 346 | 4680 | 61 | CCOC(=O)/C=C/[C@H](CCC(N)=O)NC(=O)[C@H](Cc1ccccc1)n1cccc(NC(=O)C2CCCC2)c1=O [Compound 6, trans-(2′S,4S)-6-Carbamoyl-4-{2′-[3″-cyclopentanecarbonylamino-2″-oxo-2″H-pyridin-1″-yl]-3′-phenylpropionylamino}hex-2-enoic Acid Ethyl Ester] | > 10000 | > 10000 | > 10000 | > 10000 | > 10000 | – |
| 30 | – | – | – | – | – | CCOC(=O)c1ccc(OCCC2CCN(c3ccc(C)nn3)CC2)cc1 [Pirodavir, reference compound] | – | – | – | – | – | EC50 [1, 19]: > 100000 nM; CC50 at 4 days [2, 9]: > 10000 nM; CC50 (MRC-5 cells; ENT-70 row): > 10000 nM; CC50 at 2 days [3, 10]: > 10000 nM; CC50 at 2 days [3, 11]: > 100000 nM; CC50 at 1 day [3, 12]: > 100000 nM; EC50 ([4]; MRC5, ECHO-11 (also printed EV-11), MRC-5 cells, read-out: EC50): 3700 nM; EC50 ([5]; Coxsackievirus, CAV-21, H1-HeLa cells, read-out: EC50): > 100000 nM; EC50 ([7]; MRC5, ENT-70, MRC-5 cells): 60 nM |
| 104 | 113000 | – | – | – | – | CCOC(=O)/C=C/[C@H](CCC(N)=O)NC(=O)[C@H](Cc1ccccc1)n1cccc(NC(=O)C2SCCS2)c1=O [Compound 10, trans-(2′S,4S)-6-Carbamoyl-4-(2′-{3″-[([1′″,3′″]dithiolane-2′″-carbonyl)amino]-2″-oxo-2″H-pyridin-1″-yl}-3′-phenylpropionylamino)hex-2-enoic Acid Ethyl Ester] | – | – | > 10000 | – | – | EC50 ([8]; H1-HeLa, HRV-1A): 1180 nM; EC50 [8, 20]: 1410 nM; CC50 (H1-HeLa cells; line of HRV-1A): > 10000 nM; CC50 (H1-HeLa cells; line of HRV-10): > 10000 nM |

Further lines, the compound ahead of its results:

| Compound | EC50 (HRV-14; [13]) [nM] | kinact/KI [6] [M⁻¹ s⁻¹] | EC50 ([1]; CVB3, read-out: EC50) [nM] | EC50 ([4]; ECHO-11, read-out: EC50) [nM] | EC50 [5, 18] [nM] | EC50 ([7]; ENT-70) [nM] | CC50 at 4 days [2, 14] [nM] | CC50 (MRC-5 cells; line of ENT-70) [nM] | CC50 at 2 days [3, 15] [nM] | CC50 at 2 days [3, 16] [nM] | CC50 at 1 day [3, 17] [nM] | further results |
| --- | --- | --- | --- | --- | --- | --- | --- | --- | --- | --- | --- | --- |
| Cc1cc(CCCOc2c(C)cc(-c3noc(C(F)(F)F)n3)cc2C)on1 [Pleconaril, reference compound] | 10 | – | – | – | – | – | – | – | – | – | – | EC50 ([1]; H1-HeLa): > 10000 nM; CC50 at 4 days [2, 9]: > 10000 nM; CC50 at 2 days [3, 10]: > 10000 nM; CC50 at 2 days [3, 11]: > 10000 nM; CC50 at 1 day [3, 12]: > 10000 nM; EC50 ([4]; MRC5): 160 nM; EC50 ([5]; Coxsackievirus, H1-HeLa): 90 nM |
| CCOC(=O)/C=C/[C@H](CCC(N)=O)NC(=O)[C@H](Cc1ccccc1)n1cccc(NC(=O)OCc2ccccc2)c1=O [Compound 1, trans-(2′S,4S)-4-[2′-(3″-Benzyloxycarbonylamino-2″-oxo-2″H-pyridin-1″-yl)-3′-phenylpropionylamino]-6-carbamoylhex-2-enoic Acid Ethyl Ester] | 33 | 114000 | 539 | 160 | 1480 | 12 | > 10000 | > 10000 | 50100 | > 10000 | > 10000 | – |
| Cc1cc(CCCCCOc2c(Cl)cc(C3=NCCO3)cc2Cl)on1 [WIN 54954, reference compound] | – | – | – | – | – | – | – | – | – | – | – | EC50 [1, 19]: > 100000 nM; CC50 (H1-HeLa cells; CAV-21): > 100000 nM; CC50 (H1-HeLa cells; CVB3): > 100000 nM; CC50 (H1-HeLa cells; HRV-14): > 63000 nM; EC50 ([5]; CAV-21, H1-HeLa cells, read-out: EC50): > 100000 nM; EC50 (HRV-14; HRV-14, read-out: EC50): 2130 nM |
| CC[C@@H](C(=O)N[C@H](/C=C/C(=O)OC(C)C)C[C@@H]1CCNC1=O)n1cccc(NC(=O)c2cc(C)on2)c1=O [Compound 52, trans-(2′S,3′″″S,4S)-4-[2′-(3″-{[1′″-(5″″-Methylisoxazol-3″″-yl)methanoyl]amino}-2′″oxo-2′″H-pyridin-1′″-yl)butanoylamino]-5-(2′″″-oxopyrrolidin-3′″″-yl)pent-2-enoic Acid Isopropyl Ester] | – | 36000 | – | – | – | – | – | – | > 10000 | – | – | EC50 ([8]; Human rhinovirus sp., HRV9, H1-HeLa, HRV-9): 473 nM; EC50 [8, 20]: 176 nM; EC50 ([8]; Human rhinovirus sp., HRV16, H1-HeLa, HRV-16): 280 nM; EC50 ([8]; Human rhinovirus sp., HRV25, H1-HeLa, HRV-25): 109 nM; EC50 ([8]; Human rhinovirus sp., HRV39, H1-HeLa, HRV-39): 337 nM; CC50 (H1-HeLa cells; line of HRV-9): > 10000 nM; CC50 (H1-HeLa cells; line of HRV-10): > 10000 nM; CC50 (H1-HeLa cells; line of HRV-16): > 10000 nM; CC50 (H1-HeLa cells; line of HRV-25): > 10000 nM; CC50 (H1-HeLa cells; line of HRV-39): > 10000 nM; EC50 (HRV-14; Rhinovirus B, HRV14, H1-HeLa): 181 nM |
